Source: publication PMC6154534, “New Benzimidazole-1,2,4-Triazole Hybrid Compounds: Synthesis, Anticandidal Activity and Cytotoxicity Evaluation” (Molecules : A Journal of Synthetic Chemistry and Natural …, 2017)
In brackets after ≈: the same amount, converted by molar mass.

What was measured:
C. krusei (ATCC 6258) = assay: Anticandidal broth microdilution (EUCAST EDef 7.1), resazurin fluorometric readout; type: cell-based; conditions: Pichia kudriavzevii, ATCC6258; ATCC 6258, RPMI pH 7, 24 h incubation
Protocol: (§1) Synthesized compounds (5a-5ad) were evaluated for anticandidal activity against C. albicans (ATCC 24433), C. krusei (ATCC 6258), C. parapsilosis (ATCC 22019) and C. [NT] 90030). MIC50 values were evaluated via fluorometric measurements, using resazurin solution [56, 57]. […] [NT] 90030). MIC readings were carried out twice for each chemical agent. The yeasts were maintained in RPMI after overnight incubation at 37 °C. The inocula of test microorganisms adjusted to match the turbidity of a MacFarland 0.5 standard tube as determined with a spectrophotometer and the final inoculum size was 0.5-2.5 × 10^5 cfu/mL for antifungal assay. Testing was carried out in RPMI at pH = 7 and the two-fold serial dilutions technique was applied. The last well on the microplates containing only inoculated broth was kept as controls and the last well with no growth of microorganism was recorded to represent the MIC50 expressed in μg/mL. For the antifungal assays, the compounds were dissolved in DMSO. […] The completed plates were incubated for 24 h. At the end of the incubation, resazurin (20 μg/mL) was added into each well to control whether the growth in wells. Then, plates were allowed to incubate for 2 h. MIC50 values were determined using a microplate reader at […].

C. albicans (ATCC 24433) = assay: as above; type: cell-based; conditions: Candida albicans, ATCC24433; ATCC 24433, RPMI pH 7, 24 h incubation
Protocol: as §1

[1] = system: C. parapsilosis (ATCC 22019); assay: as above; type: cell-based; conditions: Lodderomyces parapsilosis, ATCC22019; ATCC 22019, RPMI pH 7, 24 h incubation; read-out: MIC50 C. parapsilopsis
Protocol: as §1

C. glabrata (ATCC 90030) = assay: as above; type: cell-based; conditions: Nakaseomyces glabratus, ATCC90030; ATCC 90030, RPMI pH 7, 24 h incubation
Protocol: as §1

Candida species = assay: Anticandidal broth microdilution, results summarised over all strains; type: cell-based; conditions: summary over all four Candida strains; for MIC50: Candida, read-out: MIC50 against Candida species
Protocol: as §1

Row | SMILES | melting point | MIC50 (C. krusei (ATCC 6258)) | MIC50 (C. albicans (ATCC 24433)) | MIC50 [1] | MIC50 (C. glabrata (ATCC 90030)) | MIC50 (Candida species) | anticandidal activity against Candida strains (in words) (Candida species)
1 | CCn1c(SCC(=O)c2ccc(Cl)cc2Cl)nnc1-c1ccc(-c2nc3ccc(Cl)cc3[nH]2)cc1 [Compound 5s, 2-((5-(4-(6-Chloro-1H-benzimidazol-2-yl)phenyl)-4-ethyl-4H-1,2,4-triazol-3-yl)thio)-1-(2,4-dichlorophenyl)ethan-1-one] | 192 °C | 3.12 µg/mL (≈ 5.75 µM) | 1.56 µg/mL (≈ 2.87 µM) | 1.56 µg/mL (≈ 2.87 µM) | 3.12 µg/mL (≈ 5.75 µM) | 1.56 to 3.12 µg/mL (≈ 2.87 to 5.75 µM) | –
2 | Cn1c(SCC(=O)c2ccc(Cl)cc2Cl)nnc1-c1ccc(-c2nc3ccc(Cl)cc3[nH]2)cc1 [Compound 5n, 2-((5-(4-(6-Chloro-1H-Benzimidazol-2-yl)phenyl)-4-methyl-4H-1,2,4-triazol-3-yl)thio)-1-(2,4-dichlorophenyl)ethan-1-one] | 274.2 °C | 1.56 µg/mL (≈ 2.95 µM) | 1.56 µg/mL (≈ 2.95 µM) | 3.12 µg/mL (≈ 5.9 µM) | 3.12 µg/mL (≈ 5.9 µM) | 1.56 to 3.12 µg/mL (≈ 2.95 to 5.9 µM) | –
3 | Cn1c(SCC(=O)c2ccc(Cl)cc2)nnc1-c1ccc(-c2nc3ccccc3[nH]2)cc1 [Compound 5b, 2-((5-(4-(1H-Benzimidazol-2-yl)phenyl)-4-methyl-4H-1,2,4-triazol-3-yl)thio)-1-(4-chlorophenyl)ethan-1-one] | 280.6 °C | 50 µg/mL (≈ 109 µM) | 25 µg/mL (≈ 54.4 µM) | 50 µg/mL (≈ 109 µM) | 50 µg/mL (≈ 109 µM) | – | –
4 | CCn1c(SCC(=O)c2ccccc2)nnc1-c1ccc(-c2nc3ccc(F)cc3[nH]2)cc1 [Compound 5z, 2-((4-Ethyl-5-(4-(6-fluoro-1H-benzimidazol-2-yl)phenyl)-4H-1,2,4-triazol-3-yl)thio)-1-phenylethan-1-one] | 253.6 °C | 50 µg/mL (≈ 109 µM) | 12.5 µg/mL (≈ 27.3 µM) | 50 µg/mL (≈ 109 µM) | 25 µg/mL (≈ 54.6 µM) | – | –
5 | CCn1c(SCC(=O)c2ccccc2)nnc1-c1ccc(-c2nc3ccc(Cl)cc3[nH]2)cc1 [Compound 5p, 2-((5-(4-(6-Chloro-1H-benzimidazol-2-yl)phenyl)-4-ethyl-4H-1,2,4-triazol-3-yl)thio)-1-phenylethan-1-one] | 248.5 °C | 50 µg/mL (≈ 105 µM) | 12.5 µg/mL (≈ 26.4 µM) | 25 µg/mL (≈ 52.7 µM) | 12.5 µg/mL (≈ 26.4 µM) | – | did not show strong activity
6 | CCn1c(SCC(=O)c2ccc(F)cc2)nnc1-c1ccc(-c2nc3ccccc3[nH]2)cc1 [Compound 5h, 2-((5-(4-(1H-Benzimidazol-2-yl)phenyl)-4-ethyl-4H-1,2,4-triazol-3-yl)thio)-1-(4-fluorophenyl)ethan-1-one] | 231.3 °C | 12.5 µg/mL (≈ 27.3 µM) | 12.5 µg/mL (≈ 27.3 µM) | 25 µg/mL (≈ 54.6 µM) | 25 µg/mL (≈ 54.6 µM) | – | –
7 | OC(Cn1cncn1)(Cn1cncn1)c1ccc(F)cc1F [Fluconazole, reference compound] | – | 1.56 µg/mL (≈ 5.09 µM) | 0.78 µg/mL (≈ 2.55 µM) | 0.78 µg/mL (≈ 2.55 µM) | 1.56 µg/mL (≈ 5.09 µM) | – | –
8 | CCn1c(SCC(=O)c2ccccc2)nnc1-c1ccc(-c2nc3ccccc3[nH]2)cc1 [Compound 5f, 2-((5-(4-(1H-Benzimidazol-2-yl)phenyl)-4-ethyl-4H-1,2,4-triazol-3-yl)thio)-1-phenylethan-1-one] | 220.9 °C | 100 µg/mL (≈ 228 µM) | 100 µg/mL (≈ 228 µM) | 100 µg/mL (≈ 228 µM) | 100 µg/mL (≈ 228 µM) | – | –
9 | CC(=O)N1CCN(c2ccc(OCC3COC(Cn4ccnc4)(c4ccc(Cl)cc4Cl)O3)cc2)CC1 (stereo not drawn) [Ketoconazole, reference compound] | – | 1.56 µg/mL (≈ 2.94 µM) | 0.78 µg/mL (≈ 1.47 µM) | 1.56 µg/mL (≈ 2.94 µM) | 1.56 µg/mL (≈ 2.94 µM) | – | –
10 | CCn1c(SCC(=O)c2ccc(Cl)cc2)nnc1-c1ccc(-c2nc3ccccc3[nH]2)cc1 [Compound 5g, 2-((5-(4-(1H-Benzimidazol-2-yl)phenyl)-4-ethyl-4H-1,2,4-triazol-3-yl)thio)-1-(4-chlorophenyl)ethan-1-one] | 242.6 °C | 25 µg/mL (≈ 52.7 µM) | 25 µg/mL (≈ 52.7 µM) | 50 µg/mL (≈ 105 µM) | 50 µg/mL (≈ 105 µM) | – | –
11 | CCn1c(SCC(=O)c2ccc(Cl)cc2Cl)nnc1-c1ccc(-c2nc3ccccc3[nH]2)cc1 [Compound 5i, 2-((5-(4-(1H-Benzimidazol-2-yl)phenyl)-4-ethyl-4H-1,2,4-triazol-3-yl)thio)-1-(2,4-dichlorophenyl)ethan-1-one] | 221.7 °C | 50 µg/mL (≈ 98.3 µM) | 25 µg/mL (≈ 49.2 µM) | 50 µg/mL (≈ 98.3 µM) | 50 µg/mL (≈ 98.3 µM) | – | –
12 | Cn1c(SCC(=O)c2ccccc2)nnc1-c1ccc(-c2nc3ccccc3[nH]2)cc1 [Compound 5a, 2-((5-(4-(1H-Benzimidazol-2-yl)phenyl)-4-methyl-4H-1,2,4-triazol-3-yl)thio)-1-phenylethan-1-one] | 269.5 °C | 100 µg/mL (≈ 235 µM) | 100 µg/mL (≈ 235 µM) | 100 µg/mL (≈ 235 µM) | 100 µg/mL (≈ 235 µM) | – | –
13 | Cn1c(SCC(=O)c2ccc(Cl)cc2Cl)nnc1-c1ccc(-c2nc3ccc(F)cc3[nH]2)cc1 [Compound 5x, 1-(2,4-Dichlorophenyl)-2-((5-(4-(6-fluoro-1H-benzimidazol-2-yl)phenyl)-4-methyl-4H-1,2,4-triazol-3-yl)thio)ethan-1-one] | 228.5 °C | 3.12 µg/mL (≈ 6.09 µM) | 3.12 µg/mL (≈ 6.09 µM) | 3.12 µg/mL (≈ 6.09 µM) | 1.56 µg/mL (≈ 3.04 µM) | – | –
14 | CCn1c(SCC(=O)c2ccc(F)cc2F)nnc1-c1ccc(-c2nc3ccccc3[nH]2)cc1 [Compound 5j, 2-((5-(4-(1H-Benzimidazol-2-yl)phenyl)-4-ethyl-4H-1,2,4-triazol-3-yl)thio)-1-(2,4-difluorophenyl)ethan-1-one] | 238.2 °C | 12.5 µg/mL (≈ 26.3 µM) | 12.5 µg/mL (≈ 26.3 µM) | 25 µg/mL (≈ 52.6 µM) | 25 µg/mL (≈ 52.6 µM) | – | –
15 | Cn1c(SCC(=O)c2ccc(F)cc2F)nnc1-c1ccc(-c2nc3ccccc3[nH]2)cc1 [Compound 5e, 2-((5-(4-(1H-Benzimidazol-2-yl)phenyl)-4-methyl-4H-1,2,4-triazol-3-yl)thio)-1-(2,4-difluorophenyl)ethan-1-one] | 256.2 °C | 25 µg/mL (≈ 54.2 µM) | 12.5 µg/mL (≈ 27.1 µM) | 25 µg/mL (≈ 54.2 µM) | 25 µg/mL (≈ 54.2 µM) | – | –
16 | Cn1c(SCC(=O)c2ccccc2)nnc1-c1ccc(-c2nc3ccc(Cl)cc3[nH]2)cc1 [Compound 5k, 2-((5-(4-(6-Chloro-1H-benzimidazol-2-yl)phenyl)-4-methyl-4H-1,2,4-triazol-3-yl)thio)-1-phenylethan-1-one] | 260 °C | 25 µg/mL (≈ 54.4 µM) | 12.5 µg/mL (≈ 27.2 µM) | 12.5 µg/mL (≈ 27.2 µM) | 25 µg/mL (≈ 54.4 µM) | – | –
17 | Cn1c(SCC(=O)c2ccc(F)cc2)nnc1-c1ccc(-c2nc3ccccc3[nH]2)cc1 [Compound 5c, 2-((5-(4-(1H-Benzimidazol-2-yl)phenyl)-4-methyl-4H-1,2,4-triazol-3-yl)thio)-1-(4-fluorophenyl)ethan-1-one] | 259.8 °C | 25 µg/mL (≈ 56.4 µM) | 12.5 µg/mL (≈ 28.2 µM) | 12.5 µg/mL (≈ 28.2 µM) | 25 µg/mL (≈ 56.4 µM) | – | –
18 | Cn1c(SCC(=O)c2ccc(Cl)cc2)nnc1-c1ccc(-c2nc3ccc(Cl)cc3[nH]2)cc1 [Compound 5l, 2-((5-(4-(6-Chloro-1H-benzimidazol-2-yl)phenyl)-4-methyl-4H-1,2,4-triazol-3-yl)thio)-1-(4-chlorophenyl)ethan-1-one] | 236.9 °C | 6.25 µg/mL (≈ 12.6 µM) | 6.25 µg/mL (≈ 12.6 µM) | 12.5 µg/mL (≈ 25.3 µM) | 12.5 µg/mL (≈ 25.3 µM) | – | –
19 | Cn1c(SCC(=O)c2ccc(Cl)cc2Cl)nnc1-c1ccc(-c2nc3ccccc3[nH]2)cc1 [Compound 5d, 2-((5-(4-(1H-Benzimidazol-2-yl)phenyl)-4-methyl-4H-1,2,4-triazol-3-yl)thio)-1-(2,4-dichlorophenyl)ethan-1-one] | 234.7 °C | 50 µg/mL (≈ 101 µM) | 25 µg/mL (≈ 50.6 µM) | 25 µg/mL (≈ 50.6 µM) | 50 µg/mL (≈ 101 µM) | – | –
